Reference: article PMC7942396, “Drug Repurposing Screen for Compounds Inhibiting the Cytopathic Effect of SARS-CoV-2” (Frontiers in Pharmacology, 2021)
pEC50: −log10 of the molar value. Counter-ions that a name gives are not always drawn. Like-named read-outs stand apart in the source and are kept apart here. Where a SMILES comes first, the peptide text is derived from it. [ ]: non-standard residue; d: D form. Nle = CCCC[C@H](N)C(=O)O

Tests used:
[1] = tested on: SARS-CoV-2 (USA_WA1/2020); assay: microbe, parasite or virus in culture; format: cell-based; details: for pEC50: read-out: CPE EC50
[2] = cytotoxicity counter-assay, Vero E6 cells without virus
[3] = read-out: Cytotox CC50, cytotoxicity counter-assay, Vero E6 cells without virus
[4] = SARS-CoV-2 CPE assay, Vero E6 cells
[5] = SARS-CoV-2 CPE assay, Vero E6 cells, confirmed anti-SARS-CoV-2 compounds
[6] = SARS-CoV-2 CPE assay, Vero E6 cells, efficacy
[7] = Vero E6 cells without virus, 72 h
[8] = […], DMSO 0%, no-virus control 100%, hit confirmation

| Compound | % Cytotox (Vero E6 cells; [2]) | CC50 (Vero E6 cells; [3]) | pEC50 [1, 5] | CPE % Efficacy [1, 6] | also measured |
| --- | --- | --- | --- | --- | --- |
| O=C1NC(=O)/C(=C/c2ccc3c(c2)OC(F)(F)O3)S1 [AS-604850] | 31.8% | 11.2 µM |  |  | CPE % Efficacy [1, 4]: 49.2%; pEC50 [1, 4]: 4.90 |
| Cc1ccc(NC(=O)C(C)C)cc1C1CCN(Cc2ccc(Oc3ccc(F)c(F)c3)cc2)CC1.Cl [SNAP 94847 hydrochloride] | 95.1% | 12.6 µM | 5.35 | 60.0% |  |
| COc1cc2c3cc1Oc1c(OC)c(OC)cc4c1[C@@H](Cc1ccc(O)c(c1)Oc1ccc(cc1)C[C@@H]3N(C)CC2)N(C)CC4 [Berbamine dihydrochloride] | 50.1% | 11.2 µM | 5.55 | 79.0% |  |
| OCCCNc1cc(-c2ccnc(Nc3cccc(Cl)c3)n2)ccn1 [CGP-60474] |  |  |  |  | % Cytotox (Vero E6 cells): 61.3%; CC50 (Vero E6 cells): 0.11 µM; CPE % Efficacy [1]: 104.5%; pEC50 [1]: 5.20 |
| CC(C)c1onc(-c2c(Cl)cccc2Cl)c1COc1ccc(/C=C/c2cccc(C(=O)O)c2)c(Cl)c1 [GW-4064X] | 60.4% |  |  |  | CPE % Efficacy [1, 4]: 73.5%; pEC50 [1, 4]: 4.90 |
| CC(CN(C)C)CN1c2ccccc2Sc2ccccc21.CC(CN(C)C)CN1c2ccccc2Sc2ccccc21.O=C(O)C(O)C(O)C(=O)O (stereo not drawn) [Trimeprazine tartrate] | 0.0% |  |  |  | CPE % Efficacy [1, 4]: 49.5%; pEC50 [1, 4]: 4.90 |
| CC(=O)OC1[C@H]2[C@@H](C[C@@H](C)[C@@H]3C=CC(=O)[C@@]13C)OC(=O)[C@@H]2C (stereo partly drawn) [NCGC00385908] | 44.4% | 11.2 µM | 5.15 | 67.1% |  |
| CCCC[C@@H](C=O)NC(=O)[C@H](CC(C)C)NC(=O)[C@H](CC(C)C)NC(C)=O [Calpain Inhibitor I, ALLN, reference compound] (Ac-Leu-Leu-[Nle]-aldehyde) | 115.5% | 1.13 µM | 7.65 | 72.0% | % Cytotox (Vero E6 cells; [7]): <30%; CPE % Efficacy [1, 8]: 111.1%; pEC50 [1]: 5.70 |
| COc1ccc(CN2CCN(CCCSc3cc(C(C)(C)C)c(O)c(C(C)(C)C)c3)CC2)c(OC)c1OC [S-15176 difumarate salt, reference compound] |  |  |  |  | % Cytotox (Vero E6 cells; [7]): <30%; CPE % Efficacy [1, 8]: 127.4%; pEC50 [1]: 5.42 |
| O=C(CCn1cnc2onc(-c3ccc(F)cc3)c2c1=O)Nc1cccc(C(F)(F)F)c1 [NCGC00126519] | 65.0% | 10 µM | 4.95 | 64.8% |  |
| O=C(NCCCCN1CCN(c2cccc(Cl)c2Cl)CC1)c1cc2ccccc2s1 [FAUC-365] | 35.5% | 12.6 µM | 5.35 | 36.5% |  |
| COc1ccccc1N1CCN(CC[C@@](C)(C(=O)C2CCCCC2)c2ccccc2)CC1 [(R)-(-)-LY 426965 dihydrochloride, reference compound] |  |  |  |  | % Cytotox (Vero E6 cells; [7]): <30%; CPE % Efficacy [1, 8]: 110.7%; pEC50 [1]: 5.00 |
| Cc1c(CCOc2ccc(C(=O)O)cc2)c2cc(Cl)ccc2n1C(c1ccccc1)c1ccccc1 [CDIBA] | 77.1% | 12.6 µM |  |  | CPE % Efficacy [1, 4]: 52.2%; pEC50 [1, 4]: 4.85 |
| CN(C)CCCN1c2ccccc2Sc2ccc(C(F)(F)F)cc21 [Triflupromazine hydrochloride] |  |  |  |  | pEC50 ([1]; Severe acute respiratory syndrome coronavirus 2, Vero C1008, SARS-CoV-2 CPE assay, Vero E6 cells, confirmed anti-SARS-CoV-2 compounds): 5.00; Emax ([1]; Severe acute respiratory syndrome coronavirus 2, Vero C1008, SARS-CoV-2 CPE assay, Vero E6 cells, efficacy, read-out: CPE % Efficacy): 77.3% |
| CCCCCCCc1ccc(CCc2cccc(O)c2C(=O)O)cc1 [MG-149] | 23.4% |  |  |  |  |
| N=C(N)Nc1ccc(C(=O)Oc2ccc3cc(C(=N)N)ccc3c2)cc1 [nafamstat, reference compound] |  |  |  |  | Activity in the Vero E6 assay [1]: not active |
| Oligomycin A |  |  | 5.40 | 104.5% |  |
| CCC(C)CNCC(=O)N1CCc2sccc2C1COc1cccc(C)c1.Cl (stereo not drawn) [RU-SKI 43 (hydrochloride)] | 21.4% | 8.91 µM |  |  |  |
| CN(C)C(=O)COC(=O)Cc1ccc(OC(=O)c2ccc(NC(=N)N)cc2)cc1 [camostat, reference compound] |  |  |  |  | Activity in the Vero E6 assay [1]: not active |
